Target: rBIIa/beta 1 sodium channels expressed in Xenopus oocytes (Rattus norvegicus, UniProt P04775)
Assay: Electrophysiological assay, two-electrode voltage clamp in oocytes, inactivated-state protocol
Format: cell-based
Details: not given
Procedure: An electrophysiological assay was used to measure potencies of compounds of the present invention rBIIa/beta 1 sodium channels expressed in Xenopus oocytes.
Preparation of cRNA encoding cloned rat brain type IIa (rBIIa) and beta 1 (β1): cDNA clones encoding the rat brain beta 1 subunit are cloned in house using standard methods, and mRNA are prepared by standard methods. mRNA encoding rBIIa is provided by Dr. A. Golden (UC Irvine). The mRNAs are diluted and stored at −80° C. in 1 μL aliquots until injection.
Preparation of oocytes: Mature female Xenopus laevis are anaesthetized (20–40 min) using 0.15% 3-aminobenzoic acid ethyl ester (MS-222) following established procedures (Woodward, R. M., et al., Mol. Pharmacol. 41:89–103 (1992)).
Two to six ovarian lobes are surgically removed. Oocytes at developmental stages V–VI are dissected from the ovary, wherein the oocytes are still surrounded by enveloping ovarian tissues. Oocytes are defolliculated on the day of surgery by treatment with collagenase (0.5 mg/mL Sigma Type I, or Boehringer Mannheim Type A, for 0.5–1 hr). Treated oocytes are vortexed to dislodge epithelia, washed repeatedly and stored in Barth's medium containing 88 mM NaCl, 1 mM KCl, 0.41 mM CaCl2, 0.33 mM Ca(NO3)2, 0.82 mM MgSO4, 2.4 mM NaHCO3, 5 mM HEPES, pH 7.4 adjusted with 0.1 mg/mL gentamycin sulphate.
Micro-injection of oocytes: Defolliculated oocytes are micro-injected using a Nanoject injection system (Drummond Scientific Co., Broomall, Pa.). Injection pipettes are beveled to minimize clogging. Tip diameter of injection pipettes is 15–35 μm. Oocytes are microinjected with approximately 50 nL 1:10 ratio mixtures of cRNAs for rBIIa and beta 1 respectively.
Electrophysiology: Membrane current responses are recorded in frog Ringer solution containing 115 mM NaCl, 2 mM KCl, 1.8 mM CaCl2, 5 mM HEPES, pH 7.4. Electrical recordings are made using a conventional two-electrode voltage clamp (Dagan TEV-200) over periods ranging between 1–7 days following injection. The recording chamber is a simple gravity fed flow-through chamber (volume […] depending on adjustment of aspirator). Oocytes are placed in the recording chamber, impaled with electrodes and continuously perfused (5–15 mL min^−1) with frog Ringer's solution. The tested compounds are applied by bath perfusion.
Voltage protocols for evoking sodium channel currents: The standard holding potential for whole oocyte clamp is −120 mV. Standard current-voltage relationships are elicited by 40 ms depolarizing steps starting from −60 mV to +50 mV in 10 mV increments. Peak currents are measured as the maximum negative current after depolarizing voltage steps. The voltage from maximum current response is noted and used for the next voltage protocol.
The purpose is to find compounds that are state dependent modifiers of neuronal sodium channels. Preferably, the compounds have a low affinity for the rested/closed state of the channel, but a high affinity for the inactivated state. The following voltage protocol is used to measure a compounds affinity for the inactivated state. Oocytes are held at a holding potential of −120 mV. At this membrane voltage, nearly all of the channels are in the closed state. Then a 4 second depolarization is made to the voltage where the maximum current is elicited. At the end of this depolarization, nearly all the channels are in the inactivated state. A 10 ms hyperpolarizing step is then made in order to remove some channels from the inactivated state. A final depolarizing test pulse is used to assay the sodium current after this prolonged depolarization (see analysis below). Sodium currents are measured at this test pulse before and after the application of the tested compound. Data is acquired using PCLAMP 8.0 software and analyzed with […] software (Axon instruments). […]

Sequence of rBIIa/beta 1 sodium channels expressed in Xenopus oocytes (P04775 whole entry): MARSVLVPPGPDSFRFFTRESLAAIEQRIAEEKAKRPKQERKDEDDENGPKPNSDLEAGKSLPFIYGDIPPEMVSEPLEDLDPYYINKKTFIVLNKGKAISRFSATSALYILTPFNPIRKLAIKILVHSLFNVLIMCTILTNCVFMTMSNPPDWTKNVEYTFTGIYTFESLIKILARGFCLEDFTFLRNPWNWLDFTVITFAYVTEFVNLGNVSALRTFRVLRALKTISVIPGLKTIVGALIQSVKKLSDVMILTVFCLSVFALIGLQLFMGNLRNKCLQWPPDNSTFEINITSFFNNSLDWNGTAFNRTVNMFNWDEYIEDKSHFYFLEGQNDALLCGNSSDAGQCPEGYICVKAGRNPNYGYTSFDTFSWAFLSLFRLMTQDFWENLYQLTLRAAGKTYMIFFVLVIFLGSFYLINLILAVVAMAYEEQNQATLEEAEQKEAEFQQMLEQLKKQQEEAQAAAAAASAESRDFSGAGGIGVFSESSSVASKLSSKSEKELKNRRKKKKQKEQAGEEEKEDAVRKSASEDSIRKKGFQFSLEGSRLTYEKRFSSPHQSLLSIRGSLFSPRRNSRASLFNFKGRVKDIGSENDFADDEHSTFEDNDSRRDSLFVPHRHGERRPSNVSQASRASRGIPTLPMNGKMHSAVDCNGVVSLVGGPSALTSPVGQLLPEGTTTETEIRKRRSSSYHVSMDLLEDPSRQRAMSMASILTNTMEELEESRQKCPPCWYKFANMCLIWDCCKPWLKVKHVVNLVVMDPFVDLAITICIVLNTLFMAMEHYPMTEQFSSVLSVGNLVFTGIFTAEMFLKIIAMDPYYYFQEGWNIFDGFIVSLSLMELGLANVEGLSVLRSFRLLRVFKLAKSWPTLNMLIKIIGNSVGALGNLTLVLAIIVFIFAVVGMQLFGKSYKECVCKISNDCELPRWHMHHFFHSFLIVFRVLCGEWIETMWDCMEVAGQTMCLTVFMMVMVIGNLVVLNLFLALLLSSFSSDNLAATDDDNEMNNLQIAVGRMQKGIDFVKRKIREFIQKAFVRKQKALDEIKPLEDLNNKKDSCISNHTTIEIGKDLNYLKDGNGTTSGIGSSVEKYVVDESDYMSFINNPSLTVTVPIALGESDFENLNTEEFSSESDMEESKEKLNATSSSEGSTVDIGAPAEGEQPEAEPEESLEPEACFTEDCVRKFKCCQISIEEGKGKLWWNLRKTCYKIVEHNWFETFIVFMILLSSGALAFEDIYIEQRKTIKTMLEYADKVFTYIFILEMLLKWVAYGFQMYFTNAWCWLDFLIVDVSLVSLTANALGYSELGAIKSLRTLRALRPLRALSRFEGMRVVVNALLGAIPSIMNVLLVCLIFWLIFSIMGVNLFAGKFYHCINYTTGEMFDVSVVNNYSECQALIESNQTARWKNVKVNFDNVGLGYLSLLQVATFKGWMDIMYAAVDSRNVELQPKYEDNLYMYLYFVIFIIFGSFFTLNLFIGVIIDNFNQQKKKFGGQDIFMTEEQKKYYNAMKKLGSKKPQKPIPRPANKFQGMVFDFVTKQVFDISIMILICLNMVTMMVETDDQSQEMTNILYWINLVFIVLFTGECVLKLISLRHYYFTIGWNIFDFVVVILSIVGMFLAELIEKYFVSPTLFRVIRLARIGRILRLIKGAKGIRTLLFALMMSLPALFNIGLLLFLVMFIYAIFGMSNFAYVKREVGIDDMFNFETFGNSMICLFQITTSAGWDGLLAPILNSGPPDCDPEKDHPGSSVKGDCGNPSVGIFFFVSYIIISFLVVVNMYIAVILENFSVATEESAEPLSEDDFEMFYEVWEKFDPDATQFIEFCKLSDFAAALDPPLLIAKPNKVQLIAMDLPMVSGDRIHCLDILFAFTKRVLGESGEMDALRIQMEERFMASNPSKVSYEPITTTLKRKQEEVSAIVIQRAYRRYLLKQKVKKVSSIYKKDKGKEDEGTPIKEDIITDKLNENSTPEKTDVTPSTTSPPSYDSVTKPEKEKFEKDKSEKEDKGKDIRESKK
Sequence of rBIIa/beta 1 sodium channels expressed in Xenopus oocytes (Q00954 19-218 partner): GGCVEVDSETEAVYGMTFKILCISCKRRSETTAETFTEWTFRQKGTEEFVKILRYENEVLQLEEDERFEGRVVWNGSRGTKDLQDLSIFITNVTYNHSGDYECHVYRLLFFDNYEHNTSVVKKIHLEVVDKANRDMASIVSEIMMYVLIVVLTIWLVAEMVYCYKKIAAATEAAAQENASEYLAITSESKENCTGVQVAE

Row | Structure (SMILES) | Ki [nM]
1 | O=C1CSC(C=Cc2ccccc2)N1CCN1CCCCC1 (centres unmarked) | 8790

Same assay, conditions: apparent inhibition constant from single point inhibition data; rat brain type IIa/beta 1 Na+ channels in Xenopus oocytes; inactivated state; read-out: Ki (oocyte)

Row | Structure (SMILES) | Ki [nM]
2 | O=C1CSC(c2cccc(Oc3ccccc3)c2)N1CCN1CCCCC1 (centres unmarked) | 430
3 | O=C1CSC(C=C(c2ccccc2)c2ccccc2)N1CCN1CCCCC1 (centres unmarked) | 290
4 | CC(C)(C)c1ccc(Oc2cccc(C3SCC(=O)N3CCN3CCCCC3)c2)cc1 (centres unmarked) | 180
5 | O=C1CSC(c2ccc(-c3ccc(Cl)cc3)o2)N1CCN1CCCCC1 (centres unmarked) | 600
6 | O=C1CSC(c2cccc(Oc3ccc(Cl)c(Cl)c3)c2)N1CCN1CCCCC1 (centres unmarked) | 180
7 | O=C1CSC(c2cccc(OCc3ccccc3)c2)N1CCN1CCCCC1 (centres unmarked) | 390
8 | O=C1CSC(c2cccc(Oc3ccc(Cl)cc3)c2)N1CCN1CCCCC1 (centres unmarked) | 390
9 | O=C1CSC(c2ccc(Oc3ccc(F)cc3)cc2)N1CCN1CCCCC1 (centres unmarked) | 500
10 | COc1ccc(Oc2cccc(C3SCC(=O)N3CCN3CCCCC3)c2)cc1 (centres unmarked) | 800
11 | O=C1CSC(C#Cc2ccccc2)N1CCN1CCCCC1 (centres unmarked) | 5350
12 | O=C1CSC(c2cccc3ccccc23)N1CCN1CCCCC1 (centres unmarked) | 2830
13 | CC1SCC(=O)N1CCN1CCCCC1 (centres unmarked) | 70700
14 | O=C1CSC(C=C(c2ccccc2)c2ccccc2)N1CCN1CCCC1 (centres unmarked) | 3480
15 | CN(C)CCN1C(=O)CSC1C=C(c1ccccc1)c1ccccc1 (centres unmarked) | 2600
16 | CN(C)CCN1C(=O)CSC1c1cccc(Oc2ccc(C(C)(C)C)cc2)c1 (centres unmarked) | 840
17 | O=C1CSC(c2cccc(Oc3ccccc3)c2)N1C1CCN(Cc2ccccc2)CC1 (centres unmarked) | 250
18 | O=C1CSC(c2cccc(OCc3ccccc3)c2)N1CCCn1ccnc1 (centres unmarked) | 6550

Row | Structure (SMILES) | Ki [nM]
19 | O=C1CSC(c2cccc(Oc3cccc(C(F)(F)F)c3)c2)N1Cc1ccccn1 (centres unmarked) | 3400
20 | CN(C)CCN1C(=O)CSC1c1cccc(Oc2cc(Cl)cc(Cl)c2)c1 (centres unmarked) | 840
21 | CN(C)CCCN1C(=O)CSC1c1cccc(Oc2cc(Cl)cc(Cl)c2)c1 (centres unmarked) | 1880
22 | O=C1CSC(c2ccc(Oc3ccc(F)cc3)cc2)N1C1CCN(Cc2ccccc2)CC1 (centres unmarked) | 280
23 | O=C1CSC(c2cccc(Oc3cccc(C(F)(F)F)c3)c2)N1CCN1CCCC1 (centres unmarked) | 420
24 | CCn1c2ccccc2c2cc(C3SCC(=O)N3CCN3CCCC3)ccc21 (centres unmarked) | 7400
25 | O=C1CSC(c2cccc(OCc3ccccc3)c2)N1CCN1CCCC1 (centres unmarked) | 3430
26 | O=C1CSC(c2cccc(Oc3ccc(Cl)c(Cl)c3)c2)N1CCN1CCOCC1 (centres unmarked) | 810
27 | O=C1CSC(c2cccc(Oc3ccc(Cl)c(Cl)c3)c2)N1CCN1CCCC1 (centres unmarked) | 720
28 | O=C1CSC(c2cccc(Oc3cccc(C(F)(F)F)c3)c2)N1CCCn1ccnc1 (centres unmarked) | 1150
29 | CN(C)CCCN1C(=O)CSC1c1cccc(Oc2cccc(C(F)(F)F)c2)c1 (centres unmarked) | 2750
30 | O=C1CSC(c2cccc(Oc3cccc(C(F)(F)F)c3)c2)N1CCNCc1ccccc1 (centres unmarked) | 50
31 | CC(C)N(CCN1C(=O)CSC1c1cccc(Oc2cccc(C(F)(F)F)c2)c1)C(C)C (centres unmarked) | 30
32 | CN(C)CC(C)(C)CN1C(=O)CSC1c1cccc(Oc2ccc(Cl)c(Cl)c2)c1 (centres unmarked) | 390
33 | CC1CCCCN1CCCN1C(=O)CSC1c1cccc(Oc2ccc(Cl)c(Cl)c2)c1 (centres unmarked) | 880
34 | CN(C)CC(C)(C)CN1C(=O)CSC1c1cccc(Oc2cccc(C(F)(F)F)c2)c1 (centres unmarked) | 230
35 | CC1CCCCN1CCCN1C(=O)CSC1c1cccc(Oc2cccc(C(F)(F)F)c2)c1 (centres unmarked) | 1320
